Source: PubChem BioAssay AID330 (DTP/NCI, 2004)
Several values for one entry are separate records, joined by “and”; a condition that tells them apart may be missing. Identical values can stand only once. Inconclusive results and toxic doses are left out.

Test system: P388 leukemia ip, CD2F1 mice, survival T/C
Experiment: NCI In Vivo Anticancer Drug Screen. Data for tumor model P388 Leukemia (intraperitoneal) in CD2F1 (CDF1) mice
Settings: endpoint: median survival time, higher = longer survival
Summary of the method: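 Mice carrying the transplanted tumor received test compound or vehicle. Survival was recorded in each group, and the value is the treated-group measurement divided by that of the vehicle-treated control group.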

[1] = dose: 100.0 mg/kg/injection, schedule: Q01DX009 (ip), vehicle: saline with Tween-80
[2] = dose: 60.0 mg/kg/injection, schedule: Q01DX005 (ip), vehicle: saline with Tween-80
[3] = dose: 120.0 mg/kg/injection, schedule: Q01DX005 (ip), vehicle: saline with Tween-80
[4] = dose: 240.0 mg/kg/injection, schedule: Q01DX005 (ip), vehicle: saline with Tween-80
[5] = dose: 60.0 mg/kg/injection, schedule: Q01DX005 (ip), vehicle: Klucel (hydroxypropylcellulose) (HPC)
[6] = dose: 120.0 mg/kg/injection, schedule: Q01DX005 (ip), vehicle: Klucel (hydroxypropylcellulose) (HPC)
[7] = dose: 25.0 mg/kg/injection, schedule: Q01DX009 (ip), vehicle: saline with Tween-80
[8] = dose: 50.0 mg/kg/injection, schedule: Q01DX009 (ip), vehicle: saline with Tween-80
[9] = dose: 200.0 mg/kg/injection, schedule: Q01DX009 (ip), vehicle: saline with Tween-80
[10] = dose: 100.0 mg/kg/injection, schedule: Q04DX002 (ip), vehicle: saline with Tween-80
[11] = dose: 200.0 mg/kg/injection, schedule: Q04DX002 (ip), vehicle: saline with Tween-80
[12] = dose: 25.0 mg/kg/injection, schedule: Q01DX009 (ip), vehicle: saline
[13] = dose: 50.0 mg/kg/injection, schedule: Q01DX009 (ip), vehicle: saline
[14] = dose: 100.0 mg/kg/injection, schedule: Q01DX009 (ip), vehicle: saline
[15] = dose: 50.0 mg/kg/injection, schedule: Q01DX005 (ip), vehicle: saline with Tween-80
[16] = dose: 100.0 mg/kg/injection, schedule: Q01DX005 (ip), vehicle: saline with Tween-80
[17] = dose: 200.0 mg/kg/injection, schedule: Q01DX005 (ip), vehicle: saline with Tween-80

## CCOc1ccc(Br)cc1/C=N/NS(=O)(=O)c1ccc(C)cc1
[1]
  T/C: 123 % of control

## CS(=O)CC1OC2OC3C(CO)OC(OC4C(CO)OC(OC5C(CO)OC(OC6C(CO)OC(OC7C(CO)OC(OC8C(CO)OC(OC1C(O)C2O)C(O)C8O)C(O)C7O)C(O)C6O)C(O)C5O)C(O)C4O)C(O)C3O (stereo not given)
dose: 60.0 mg/kg/injection, schedule: Q01DX005 (ip), vehicle: saline
  T/C: 100 % of control
dose: 120.0 mg/kg/injection, schedule: Q01DX005 (ip), vehicle: saline
  T/C: 106 % of control
dose: 240.0 mg/kg/injection, schedule: Q01DX005 (ip), vehicle: saline
  T/C: 104 % of control

## O=C(Nc1ccc(Cl)c(Cl)c1)/C(Cl)=C1/Sc2ccccc2NC1=O
[2]
  T/C: 105 % of control
[3]
  T/C: 105 % of control
[4]
  T/C: 105 % of control

## CC(=O)c1c(C)[nH]c2c1[nH]c1ccccc12
[5]
  T/C: 93 % of control
[6]
  T/C: 101 % of control

## O=C1CCCC2C3CC(CN12)C1CCCCN1C3 (stereo not given)
[7]
  T/C: 100 % of control
[8]
  T/C: 120 % of control
[1]
  T/C: 105 % of control

## Oc1c(Cl)cc(Cl)cc1/C=N/c1nc(-c2ccc(Cl)cc2)cs1
[1]
  T/C: 88 % of control
[9]
  T/C: 104 % of control

## [N-]=[N+]=CC(=O)CCC(=O)C=[N+]=[N-]
dose: 0.75 mg/kg/injection, schedule: Q01DX009 (ip), vehicle: other
  T/C: 123 % of control
dose: 0.78 mg/kg/injection, schedule: Q01DX007 (ip), vehicle: DMSO
  T/C: 101 % of control
dose: 1.56 mg/kg/injection, schedule: Q01DX007 (ip), vehicle: DMSO
  T/C: 117 % of control
dose: 3.0 mg/kg/injection, schedule: Q01DX009 (ip), vehicle: other
  T/C: 170 % of control
dose: 6.0 mg/kg/injection, schedule: Q01DX009 (ip), vehicle: other
  T/C: 104 % of control
dose: 6.25 mg/kg/injection, schedule: Q01DX007 (ip), vehicle: DMSO
  T/C: 158 % of control
dose: 12.5 mg/kg/injection, schedule: Q01DX007 (ip), vehicle: DMSO
  T/C: 93 % of control
dose: 25.0 mg/kg/injection, schedule: Q01DX007 (ip), vehicle: DMSO
  T/C: 93 % of control

## COc1ccc(C2OC3=C(Nc4cc(C)c(C)cc4N3)C2=O)cc1 (stereo not given)
[5]
  T/C: 89 % of control
[6]
  T/C: 89 % of control

## CNC(=O)N(C)c1cc(N(C)C)nc(OC)n1
dose: 4.5 mg/kg/injection, schedule: Q01DX005 (ip), vehicle: saline + alcohol
  T/C: 100 % of control
dose: 9.0 mg/kg/injection, schedule: Q01DX005 (ip), vehicle: saline + alcohol
  T/C: 90 % of control
dose: 18.0 mg/kg/injection, schedule: Q01DX005 (ip), vehicle: saline + alcohol
  T/C: 98 % of control
dose: 36.0 mg/kg/injection, schedule: Q01DX005 (ip), vehicle: saline + alcohol
  T/C: 98 % of control
dose: 72.0 mg/kg/injection, schedule: Q01DX005 (ip), vehicle: saline + alcohol
  T/C: 101 % of control

## CCCCCCCCCCCCCCC[N+]1(CC)CCCC1
dose: 0.78 mg/kg/injection, schedule: Q01DX009 (ip), vehicle: saline
  T/C: 108 % of control
dose: 1.56 mg/kg/injection, schedule: Q01DX009 (ip), vehicle: saline
  T/C: 114 % of control
dose: 3.12 mg/kg/injection, schedule: Q01DX009 (ip), vehicle: saline
  T/C: 114 % of control

## Cc1ccc(NC(=O)C#N)cc1
dose: 15.0 mg/kg/injection, schedule: Q01DX005 (ip), vehicle: saline with Tween-80
  T/C: 107 % of control
dose: 30.0 mg/kg/injection, schedule: Q01DX005 (ip), vehicle: saline with Tween-80
  T/C: 96 % of control

## CCOC(=O)c1cn(C)c2c1C(=O)C(C(=O)OCC)CC(=O)N2 (stereo not given)
dose: 50.0 mg/kg/injection, schedule: Q01DX005 (ip), vehicle: saline + Tween-80 + alcohol
  T/C: 94 % of control
dose: 100.0 mg/kg/injection, schedule: Q01DX005 (ip), vehicle: saline + Tween-80 + alcohol
  T/C: 99 % of control
dose: 200.0 mg/kg/injection, schedule: Q01DX005 (ip), vehicle: saline + Tween-80 + alcohol
  T/C: 101 % of control

## CC1C(=O)CCC2(C)CCC3C(OC(=O)C3(C)[Se]c3ccccc3)C12 (stereo not given)
[10]
  T/C: 97 % of control
[11]
  T/C: 98 % of control

## O=C(OCCCCI)c1ccccc1
dose: 25.0 mg/kg/injection, schedule: Q01DX009 (ip), vehicle: saline + Tween-80 + alcohol
  T/C: 105 % of control
dose: 50.0 mg/kg/injection, schedule: Q01DX009 (ip), vehicle: saline + Tween-80 + alcohol
  T/C: 103 % of control
dose: 100.0 mg/kg/injection, schedule: Q01DX009 (ip), vehicle: saline + Tween-80 + alcohol
  T/C: 104 % of control
dose: 2000.0 mg/kg/injection, schedule: Q01DX009 (ip), vehicle: saline + Tween-80 + alcohol
  T/C: 114 % of control

## CCOC(=O)N1C2CCC1C(C)C(=O)C2 (stereo not given)
dose: 50.0 mg/kg/injection, schedule: Q01DX005 (ip), vehicle: saline
  T/C: 96 % of control
dose: 100.0 mg/kg/injection, schedule: Q01DX005 (ip), vehicle: saline
  T/C: 96 % of control and 104 % of control
dose: 200.0 mg/kg/injection, schedule: Q01DX005 (ip), vehicle: saline
  T/C: 94 % of control

## COC1C=CC23c4cc5c(cc4C(O)OC2CN(C)C3C1)OCO5 (stereo not given)
dose: 12.5 mg/kg/injection, schedule: Q01DX009 (ip), vehicle: saline
  T/C: 106 % of control
[12]
  T/C: 107 % of control
[13]
  T/C: 115 % of control
[14]
  T/C: 94 % of control

## O=C1CCCCCC1Cc1cc(O)c(CC2CCCCCC2=O)cc1O (stereo not given)
[7]
  T/C: 96 % of control
[8]
  T/C: 93 % of control
[1]
  T/C: 98 % of control
[9]
  T/C: 94 % of control

## S=C1NCCNC(=S)SSSS1
[15]
  T/C: 107 % of control
[16]
  T/C: 114 % of control
[17]
  T/C: 113 % of control

## Cc1c([N+](=O)[O-])c(=O)oc2c1ccc1occc(=O)c12
[15]
  T/C: 96 % of control
[16]
  T/C: 89 % of control
[17]
  T/C: 90 % of control

## Cc1cc(=O)oc2cc(OC(=O)N(C)C)c(Cl)cc12
[8]
  T/C: 100 % of control
[1]
  T/C: 101 % of control
[9]
  T/C: 101 % of control

## CCN1c2ccccc2CC(C#N)(CCN(C)C)c2ccccc21 (stereo not given)
dose: 12.5 mg/kg/injection, schedule: Q01DX009 (ip), vehicle: saline with Tween-80
  T/C: 100 % of control
[7]
  T/C: 99 % of control
[8]
  T/C: 104 % of control

## C/C(=N\O)c1ccccc1N=Nc1ccc(N(CCCl)CCCl)cc1C
dose: 50.0 mg/kg/injection, schedule: Q01DX001 (ip), vehicle: Klucel (hydroxypropylcellulose) (HPC)
  T/C: 100 % of control
dose: 100.0 mg/kg/injection, schedule: Q01DX001 (ip), vehicle: Klucel (hydroxypropylcellulose) (HPC)
  T/C: 98 % of control
dose: 200.0 mg/kg/injection, schedule: Q01DX001 (ip), vehicle: Klucel (hydroxypropylcellulose) (HPC)
  T/C: 104 % of control

## Cc1ccccc1N=Nc1c(O)n(-c2ccc(Cl)cc2)c(=S)n(-c2ccc(Br)cc2)c1=O
[10]
  T/C: 96 % of control
[11]
  T/C: 105 % of control
dose: 400.0 mg/kg/injection, schedule: Q04DX002 (ip), vehicle: saline with Tween-80
  T/C: 91 % of control

## C=C(Br)C(=O)N1CCCC1C(=O)NC (stereo not given)
[12]
  T/C: 110 % of control
[13]
  T/C: 91 % of control
[14]
  T/C: 98 % of control

## C/C(CCl)=N/NC1=NC(c2ccccc2Cl)P(=O)(NCCCNP2(=O)SC(N/N=C(/C)CCl)=NC2c2ccccc2Cl)S1 (stereo not given)
[2]
  T/C: 99 % of control
[3]
  T/C: 98 % of control
[4]
  T/C: 93 % of control

## COC(=O)c1nc2n[nH]c(N)c2c2c1CCCCCCCCCC2
[2]
  T/C: 99 % of control
[3]
  T/C: 93 % of control
[4]
  T/C: 94 % of control

## CCOC(=O)c1cc2cc3c4c(c2oc1=O)CCCN4CCC3
dose: 12.5 mg/kg/injection, schedule: Q01DX005 (ip), vehicle: Klucel (hydroxypropylcellulose) (HPC)
  T/C: 106 % of control
dose: 25.0 mg/kg/injection, schedule: Q01DX005 (ip), vehicle: Klucel (hydroxypropylcellulose) (HPC)
  T/C: 110 % of control
dose: 50.0 mg/kg/injection, schedule: Q01DX005 (ip), vehicle: Klucel (hydroxypropylcellulose) (HPC)
  T/C: 107 % of control and 111 % of control

## O=C(NO)c1ccccc1O
[1]
  T/C: 110 % of control
dose: 100.0 mg/kg/injection, schedule: Q04DX003 (ip), vehicle: saline with Tween-80
  T/C: 86 % of control
[9]
  T/C: 100 % of control
dose: 200.0 mg/kg/injection, schedule: Q04DX003 (ip), vehicle: saline with Tween-80
  T/C: 90 % of control
dose: 400.0 mg/kg/injection, schedule: Q01DX009 (ip), vehicle: saline with Tween-80
  T/C: 110 % of control
dose: 400.0 mg/kg/injection, schedule: Q04DX003 (ip), vehicle: saline with Tween-80
  T/C: 100 % of control
